In patent US7273880B2, “Selective NPY (Y5) antagonists” (H. Lunbeck A/S, priority 1999, dated 2007):
Like-named read-outs stand apart in the source and are kept apart here.

Experiments:
[1] = molecular target: T1, human Y5 receptor (h NPY-5) (Homo sapiens, UniProt Q15761); assay: Functional assay: radioimmunoassay of cAMP; type: cell-based; settings: functional antagonism, forskolin-stimulated cAMP, cells stably transfected with human Y5
T1 construct: expressed in transfected cells; host or cells: mouse fibroblast LM(tk-) cells, e.g. L-hY5-7 (ATCC CRL-11995)
T1 sequence (Q15761 1-445): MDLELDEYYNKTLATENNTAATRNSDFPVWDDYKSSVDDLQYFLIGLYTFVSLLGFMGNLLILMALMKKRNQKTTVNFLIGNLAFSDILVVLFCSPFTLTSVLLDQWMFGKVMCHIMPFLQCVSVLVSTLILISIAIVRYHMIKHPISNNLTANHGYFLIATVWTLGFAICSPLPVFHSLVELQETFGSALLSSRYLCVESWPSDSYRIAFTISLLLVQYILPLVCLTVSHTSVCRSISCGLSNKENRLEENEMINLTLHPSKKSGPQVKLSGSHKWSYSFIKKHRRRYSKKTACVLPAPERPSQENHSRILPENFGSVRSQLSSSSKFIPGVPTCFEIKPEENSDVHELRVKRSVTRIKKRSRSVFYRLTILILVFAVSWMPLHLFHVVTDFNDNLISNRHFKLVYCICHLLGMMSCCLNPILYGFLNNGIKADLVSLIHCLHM
Procedure: LM(tk-) cells stably transfected with the human Y5 receptor were routinely converted from an adherent monolayer to a viable suspension. Adherent cells were harvested with trypsin at the point of confluence, resuspended in a minimal volume of complete DMEM for a cell count, and further diluted to a concentration of 10^6 cells/ml in suspension media (10% bovine calf serum, 10% 10× Medium 199 (Gibco), 9 mM NaHCO3, 25 mM glucose, 2 mM L-glutamine, 100 units/ml penicillin/100 μg/ml streptomycin, and 0.05% methyl cellulose). The cell suspension was maintained in a shaking incubator at 37° C., 5% CO2 for 24 hours. Membranes harvested from cells grown in this manner may be stored as large, uniform batches in liquid nitrogen. Alternatively, cells may be returned to adherent cell culture in complete DMEM by distribution into 96-well microtiter plates coated with poly-D-lysine (0.01 mg/ml) followed by incubation at 37° C., 5% CO2 for 24 hours. Cells prepared in this manner yielded a robust and reliable NPY-dependent response in cAMP radio-immunoassays as further described hereinbelow.
Stably transfected cells were seeded into 96-well microtiter plates and cultured until confluent. To reduce the potential for receptor desensitization, the serum component of the media was reduced to 1.5% for 4 to 16 hours before the assay. Cells were washed in Hank's buffered saline, or HBS (150 mM NaCl, 20 mM HEPES, 1 mM CaCl2, 5 mM KCl, 1 mM MgCl2, and 10 mM glucose) supplemented with 0.1% bovine serum albumin plus 5 mM theophylline and pre-equilibrated in the same solution for 20 min at 37° C. in 5% CO2. Cells were then incubated 5 min with 10 μM forskolin and various concentrations of receptor-selective ligands. The assay was terminated by the removal of HBS and acidification of the cells with 100 mM HCl. Intracellular cAMP was extracted and quantified with a modified version of a magnetic bead-based radioimmunoassay (Advanced Magnetics, Cambridge, Mass.). The final antigen/antibody complex was separated from free ^125I-cAMP by vacuum filtration through a PVDF filter in a microtiter plate (Millipore, Bedford, Mass.). Filters were punched and counted for ^125I in a Packard gamma counter. Binding data were analyzed using nonlinear regression and statistical techniques available in the GraphPAD Prism package (San Diego, Calif.).

[2] = molecular target: hNPY-1,2,4 (human Y1, Y2, Y4 receptors); assay: Radioligand binding to membranes, cloned human Y1, Y2 and Y4 receptors; settings: one bound given for all three
Procedure, shortened: (§1)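 Competition binding on membranes from stably transfected 293 or LM(tk-) cells, with 0.08 nM ¹²⁵I-PYY in pH 7.4 HEPES buffer plus 0.1% BSA, 120 min at 30 °C, filtration and counting. Nonspecific binding defined by 300 nM human NPY, or 100 nM human PP for Y4; nonlinear regression.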

[3] = molecular target: T2, human Y5 receptor (hNPY-5) (Homo sapiens, UniProt Q15761); assay: Radioligand binding to membranes, cloned human Y5 receptor
T2 construct: expressed in transfected cells; host or cells: mouse fibroblast LM(tk-) cells, e.g. L-hY5-7 (ATCC CRL-11995)
T2 sequence (Q15761 1-445): T1 sequence (Q15761 1-445)
Procedure, shortened: as §1

satiated rats = settings: direct injection into the hypothalamus, 4-hour period; cited from earlier work
[4] = binding Ki as repeated in Table 4, read-out: Ki (h NPY-5)
[5] = cloned human NPY Y5 receptor, radioligand competition binding, Tables 1-3, read-out: Ki, nM hNPY-5

In the case of `CN(C)S(=O)(=O)NC[C@H]1CC[C@H](Nc2nc3c(s2)CCCc2ccc(F)cc2-3)CC1` [Example 1, trans-N2-(4-Dimethylaminosulfonylaminomethyl)-cyclohexyl-9-fluoro-5,6-dihydro-4H-benzo[6,7]-cyclohepta[d][1,3]-thiazol-2-amine], the melting point is reported as 60 to 65 °C, the Kb [1] is reported as 12.6 nM and the Ki [2] is reported as > 10000 nM. The Ki [3, 4] was 2.1 nM and the Ki [3, 5] was 2.1 nM.
For `O=S(=O)(NCCCCCNc1nc2c(s1)CCCc1ccc(F)cc1-2)c1ccccc1F` [Example 3, 1-Aza-9-fluoro-2-(5-(2-fluorophenyl)sulfonylamino)-pentylamino-4,5-dihydro-3-thia-benzo[e]azulene], the Kb [1] was 3.16 nM, the Ki [2] was > 10000 nM and the Ki [3, 4] was 4.5 nM. The Ki [3, 5] was 4.5 nM.
In the case of `O=S(=O)(NCCCCCNc1nc2c(s1)CCCc1ccc(F)cc1-2)c1cccc2ccccc12` [Example 4, 1-Aza-9-fluoro-4,5-dihydro-2-(5-(1-naphthyl)sulfonyl-amino)-pentylamino-3-thia-benzo[e]azulene], the Kb [1] is reported as 2.51 nM, the Ki [2] is reported as > 10000 nM and the Ki [3, 4] is reported as 19.5 nM. It also gave a Ki [3, 5] of 19.5 nM.
With `CS(=O)(=O)NC[C@H]1CC[C@H](Nc2nc3c(s2)CCCc2ccc(F)cc2-3)CC1` [Example 11, trans-1-Aza-9-fluoro-4,5-dihydro-2-(4-(methyl-sulfonylamino-methyl)cyclohexyl)amino-3-thia-benzo[e]azulene] the Kb [1] was 3.16 nM, the Ki [2] was > 10000 nM and the Ki [3, 4] was 6.4 nM. It also gave a Ki [3, 5] of 6.4 nM.
For `O=S(=O)(CC(F)(F)F)NCCCCCNc1nc2c(s1)CCCc1ccc(F)cc1-2` [Example 20, 1-Aza-9-fluoro-2-(5-(2-trifluoroethyl)sulfonylamino)-pentylamino-4,5-dihydro-3-thia-benzo [e]azulene], the Kb [1] was 5.01 nM, the Ki [2] was > 10000 nM and the Ki [3, 4] was 0.3 nM. For the same molecule, the Ki [3, 5] was 5.8 nM.
For `CS(=O)(=O)N[C@H]1CC[C@H](CNc2nc3c(s2)CCCc2ccc(F)cc2-3)CC1` [Example 43, trans-N2-(4-Methylsulfonylamino)cyclohexylmethyl-9-fluoro-5,6-dihydro-4H-benzo[6,7]cyclohepta[d][1,3]-thiazol-2-amine], the Kb [1] was 15.8 nM, the Ki [2] was > 10000 nM and the Ki [3, 4] was 4.4 nM. It also gave a Ki [3, 5] of 4.4 nM.
With `NS(=O)(=O)N[C@H]1CC[C@H](CNc2nc3c(s2)CCCc2ccc(F)cc2-3)CC1` [Example 44, trans-N2-(4-Aminosulfonylamino)cyclohexylmethyl-9-fluoro-5,6-dihydro-4H-benzo[6,7]cyclohepta[d][1,3]-thiazol-2-amine] the melting point was 180 to 182 °C, the Kb [1] was 1.58 nM and the Ki [2] was > 10000 nM. It also gave a Ki [3, 4] of 2.3 nM and a Ki [3, 5] of 2.3 nM.
For “NPY: peptide neurotransmitter neuropeptide Y, a 36 amino acid member of the pancreatic polypeptide family”, the “increase of food intake” value (satiated rats) is listed as “up to 10 fold”.
